According to the NIST ThermoML archive (doi:10.1016/j.fluid.2008.03.012):

Details: 101.33 kPa, Liquid

CCOC(=O)CC(C)=O [ethyl 3-oxobutanoate]
Details	mass density [kg/m3]
278.15 K	1043.1
288.15 K	1034.5
298.15 K	1023.5
313.15 K	1008
328.15 K	992.1
338.15 K	981.9
348.15 K	971.4
